The record followed here is ChEMBL document CHEMBL1135316, “Parallel solution- and solid-phase synthesis of spirohydantoin derivatives as neurokinin-1 receptor ligands” (Bioorg Med Chem Lett, 2002).

Molecules are shown by their SMILES.

In this test the target is Substance-P receptor (Homo sapiens, UniProt P25103). The test can be described thus: Affinity for human Tachykinin receptor 1 expressed in CHO cells. Format: cell-based.
Substance-P receptor, sequence (P25103 whole entry): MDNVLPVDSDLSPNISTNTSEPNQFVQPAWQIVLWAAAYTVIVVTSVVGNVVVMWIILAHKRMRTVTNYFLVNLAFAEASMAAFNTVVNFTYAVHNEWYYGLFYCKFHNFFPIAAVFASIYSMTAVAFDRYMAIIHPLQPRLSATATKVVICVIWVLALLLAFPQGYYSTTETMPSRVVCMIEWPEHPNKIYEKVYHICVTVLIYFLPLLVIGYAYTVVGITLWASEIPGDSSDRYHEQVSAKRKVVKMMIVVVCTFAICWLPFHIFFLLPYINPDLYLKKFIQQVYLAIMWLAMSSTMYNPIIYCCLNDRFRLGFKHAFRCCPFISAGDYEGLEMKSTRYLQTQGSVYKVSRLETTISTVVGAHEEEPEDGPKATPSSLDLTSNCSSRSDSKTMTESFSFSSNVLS
`CSc1ccc(N2C(=O)NC3(CCN(C(=O)c4cc(C(F)(F)F)cc(C(F)(F)F)c4)CC3)C2=O)cc1` gave a Ki of 132 nM.
The compound `O=C(c1cc(C(F)(F)F)cc(C(F)(F)F)c1)N1CCC2(CC1)NC(=O)N(Cc1ccc3c(c1)OCO3)C2=O` had a Ki of 245 nM. Compared with the last compound, the Ki is about 1.9-fold higher.
As to `Cc1cc(C)c(C(=O)N2CCC3(CC2)NC(=O)N(c2cc(C(F)(F)F)cc(C(F)(F)F)c2)C3=O)c(C)c1`, the Ki is 324 nM.
With `CN1C(=O)N(Cc2cc(C(F)(F)F)cc(C(F)(F)F)c2)C2(CCN(C(=O)c3cccc4ccccc34)CC2)C1=O` the figure was 457 nM; with `CN1C(=O)N(Cc2cc(C(F)(F)F)cc(C(F)(F)F)c2)C2(CCN(C(=O)CN3CCC(Cc4ccccc4)CC3)CC2)C1=O`, 3720 nM; with `CN1C(=O)N(Cc2cc(C(F)(F)F)cc(C(F)(F)F)c2)C2(CCN(C(=O)c3c(Cl)cccc3Cl)CC2)C1=O`, 646 nM.
Take `Cc1cccc(NC(=O)N2CCC3(CC2)NC(=O)N(Cc2cc(C(F)(F)F)cc(C(F)(F)F)c2)C3=O)c1`: the Ki was 45.7 nM. This Ki lies about 14-fold lower than the previous one.
The result for `O=C(c1cc(C(F)(F)F)cc(C(F)(F)F)c1)N1CCC2(CC1)NC(=O)N(Cc1cccc(-c3ccccc3)c1)C2=O` reads 138 nM; that for `O=C(c1cccc2ccccc12)N1CCC2(CC1)NC(=O)N(c1cc(C(F)(F)F)cc(C(F)(F)F)c1)C2=O`, 339 nM.
In turn, `O=C(c1cc(C(F)(F)F)cc(C(F)(F)F)c1)N1CCC2(CC1)NC(=O)N(CCc1c[nH]c3ccccc13)C2=O` showed a Ki of 575 nM.
With `O=C1NC2(CCN(S(=O)(=O)CCc3cccc4ccccc34)CC2)C(=O)N1Cc1cc(C(F)(F)F)cc(C(F)(F)F)c1` the figure was 74.1 nM.
`N#Cc1cccc(CN2CCC3(CC2)NC(=O)N(Cc2cc(C(F)(F)F)cc(C(F)(F)F)c2)C3=O)c1` gave a Ki of 107 nM.
